# Results published in patent publication US6632794B1, “Insulin-like growth factor agonist molecules” (Genentech, Inc., priority 1997, dated 2003).
# Where “and” joins values, the source holds several entries; their conditions need not be identical. Equal entries are not always repeated. Positions of bridges follow the written chain, without caps; N, C: chain ends. Residues, ends and D or L forms follow the SMILES beside them.
# What was measured:
# [1] = target: T1, IGFBP-1 (Homo sapiens, UniProt P08833); assay: Biotin-BP plate (ELISA) assay, biotinylated IGFBP-1 binding to IGF-I
# T1 construct: biotin (chemical label, EZ-LINK NHS-SS-Biotin)
# T1 sequence (P08833 26-259): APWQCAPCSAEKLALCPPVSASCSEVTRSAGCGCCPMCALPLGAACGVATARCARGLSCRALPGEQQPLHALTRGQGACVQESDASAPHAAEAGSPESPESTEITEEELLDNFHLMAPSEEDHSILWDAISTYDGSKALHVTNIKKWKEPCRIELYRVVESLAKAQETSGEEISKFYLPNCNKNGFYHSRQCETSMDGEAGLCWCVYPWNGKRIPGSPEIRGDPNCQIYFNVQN
# Description: 1. Biotin-BP Assay (for IGFBP-1 Binders)
# (§1) For inhibition of IGFBP-1 binding, IGFBP-1 (as well as IGFBP-3 as a control) were biotinylated as described above. MAXISORP™plates were coated and blocked as described above, using 2 μg/mL IGF-I. In a separate plate, serial dilutions of peptide were premixed with a constant concentration (20 nM) of biotinylated IGFBP-1. After 20 min. at room temperature, the mixture was added to the IGF-I plate. The peptide/IGFBP mix was then removed and the plate was washed ten times with PBS buffer containing 0.05% TWEEN-20™ surfactant. Bound biotin-IGFBP-1 was then detected using streptavidin-conjugated horse radish peroxidase, and a chromogenic substrate.
# A second series of peptides made use of non-natural amino acids to probe whether other structural features such as an added methyl group at the alpha carbon, or an isomer (D-alanine) could affect peptide binding to IGFBP-1.
# (§2) Substitutions at the N-terminus or C-terminus yielded affinity improvements. […] All of these peptides had similar or improved apparent affinity for IGFBP-1 as compared with bp1-01 and bp1-02 and are thus expected to increase the availability of IGF-I in an in vitro cell culture assay.
# [2] = target: T2, IGFBP-3 (Homo sapiens, UniProt P17936); assay: Biotin-BP plate assay, biotinylated IGFBP-3 binding to IGF-I (control); settings: FIG. 34
# Description: as §1
# [3] = target: T1, IGFBP-1; assay: KIRA assay of IGF-I activity with IGF-I plus IGFBP-1 and peptide; assay type: cell-based; settings: peptide plus IGF-I plus IGFBP-1; read-out: IC50 for blocking the inhibition of IGF-I activity by IGFBP-1 (KIRA)
# Description: (§3) C. In Vitro Activation (KIRA)
# (§4) The ability of several synthetic peptides to block IGF-I binding to IGFBPs and release functional IGF-I was tested in a KIRA assay of IGF-I activity, as described in Example 1. Cells were treated with IGF-I alone, peptide alone, peptide plus IGF-I, IGF-I plus binding protein (IGFBP-1 or IGFBP-3), or IGF-I plus binding protein (IGFBP-1 or IGFBP-3) and peptide.
# [4] = target: T2, IGFBP-3; assay: KIRA assay of IGF-I activity with IGF-I plus IGFBP-3 and peptide; assay type: cell-based; settings: FIG. 37D
# Description: as §3, §4
# It is believed that this would drop to 30 uM with a 1:1 ratio.
# [5] = target: T1, IGFBP-1; assay: BIAcore kinetics on immobilized IGFBP-1; assay type: binding; settings: IGFBP-1 coupled to dextran chip
# Description: The kinetics of bp1-01 peptide variants were examined in a BIAcore™ (BIAcore, Inc., Piscataway, N.J.) assay using IGFBP-1 covalently coupled via EDC/NHS (as described by the manufacturer) to a dextran chip. […] The latter implies a half-life for peptide dissociation from IGFBP-1 of approximately 28 sec. The association rate constant is moderately fast, consistent with the notion that the peptide may not undergo significant conformation change upon binding to IGFBP-1.
# [6] = target: T1, IGFBP-1; assay: BIAcore competition assay, IGFBP-1 binding to IGF-I; settings: bp1-01 Ala-scan variants by BIAcore; wt = bp1-01
# Description: (§5) Two series of synthetic peptide variants were generated to determine which side chains of the bp1-01 peptide might contribute directly to binding IGFBP-1. In the first series an alanine-scanning approach (Cunningham and Wells, Science, 244: 1081-1085 (1989)) was used to remove that portion of each side chain beyond the beta carbon. The contribution of these atoms to the free energy of binding of the peptide to IGFBP-1 was then assessed by measuring the potency (IC50) of the variant for inhibiting IGFBP-1 binding to IGF-I or IGF-II in a BIAcore™competition assay, analogous to that described for IGFBP-3 (see Example 7).
# as §2
# [7] = target: T1, IGFBP-1; assay: BIAcore competition assay, IGFBP-1 binding to IGF-II; settings: bp1-01 Ala-scan variants by BIAcore
# Description: as §5
# [8] = target: T1, IGFBP-1; assay: IGF-blocking phage assay on IGFBP-1 coated plate; assay type: binding; settings: FIG. 28
# Description: To distinguish among these possibilities, phage clones were tested for the ability to bind to IGFBP-1 or IGFBP-3 in the presence and absence of IGF-I.
# IGFBP-1 or IGFBP-3 was coated directly onto MAXISORP™ plates as above. Phage from clonal cultures were mixed with IGF-I (100 nM final concentration), and incubated with the immobilized IGFBP for 1 hour at room temperature. The plates were then washed ten times, as above, and a solution of rabbit anti-phage antibody mixed with a goat-anti-rabbit conjugate of horse radish peroxidase was added. After an incubation of 1 hour at room temperature, the plates were developed with a chromogenic substrate, o-phenylenediamine (Sigma). The reaction was stopped with addition of ½ volume of 2.5 M H2SO4. Optical density at 490 nm was measured on a spectrophotometric plate reader.
# These peptides are thus likely to occupy an overlapping site with the IGF-binding epitope on IGFBP-3. […] Additional peptide-phage clones were screened similarly, at a low concentration of phage, with and without IGF-I.
# T2 sequence (P17936 28-291): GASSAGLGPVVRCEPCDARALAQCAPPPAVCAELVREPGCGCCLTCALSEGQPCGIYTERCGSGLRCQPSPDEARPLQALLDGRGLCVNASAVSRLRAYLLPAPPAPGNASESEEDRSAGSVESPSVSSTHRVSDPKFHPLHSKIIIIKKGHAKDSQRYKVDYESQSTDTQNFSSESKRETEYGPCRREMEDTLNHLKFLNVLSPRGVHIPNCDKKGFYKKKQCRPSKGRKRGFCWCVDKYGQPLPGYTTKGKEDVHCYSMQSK
Compound,"IC50 ([1]; 20 nM biotinylated IGFBP-1, IGF-I coated plate, read-out: ELISA IC50, inhibition of IGF-I binding to IGFBP-1)",IGF-I Inhibition IC50 (mut)/IC50 (wt) ([1]; C-terminal bp1-01 variants by ELISA),"IGF-I Inhibition IC50 (mut)/IC50 (wt) ([1]; bp1-01 non-natural variants by ELISA, a = D-alanine, aib = alpha-aminoisobutyrate)","IGF-I Inhibition IC50 (mut)/IC50 (wt) ([1]; g8 bp1-01 selectants by ELISA plate assay, wt = bp1-01)",inhibition of biotinylated IGFBP-3 binding to IGF-I plate [2],IC50 [3],effect on IGF-I activity in KIRA with IGF-I plus IGFBP-3 [4],dissociation rate constant / dissociation kinetics [5],IGF-I Inhibition IC50 (mut)/IC50 (wt) [6],IGF-II Inhibition IC50 (mut)/IC50 (wt) [7],inhibition of phage binding to IGFBP-1 by IGF-I in phage titration [8]
CC(C)C[C@@H]1NC(=O)[C@H](Cc2c[nH]c3ccccc23)NC(=O)[C@H](CCC(N)=O)NC(=O)[C@H](CC(C)C)NC(=O)[C@@H]2CCCN2C(=O)CNC(=O)[C@H](C)NC(=O)[C@H](CCCNC(=N)N)NC(=O)[C@@H](N)CSSC[C@@H](C(=O)N[C@@H](CCC(=O)O)C(=O)N[C@@H](CCCCN)C(=O)N[C@@H](Cc2ccc(O)cc2)C(=O)N[C@@H](Cc2ccccc2)C(=O)NCC(N)=O)NC1=O [bp1-01] (H-CRAGPLQWLCEKYFG-NH2; disulfide 1-10; N-terminus assumed),~180 nM and 180 nM,1,1,1,no inhibition,397 nM,Neither of these peptides showed activity,too rapid to measure,1,1,–
SEVGCRAGPLQWLCEKYF [HL-1],–,–,–,–,–,–,–,–,–,–,inhibited by IGF-I for binding to IGFBP-1 at some phage concentration
